Reference: patent US20230303483A1, “USE OF STROBILURIN TYPE COMPOUNDS FOR COMBATING PHYTOPATHOGENIC FUNGI CONTAINING AN AMINO ACID SUBSTITUTION F129L IN THE MITOCHONDRIAL CYTOCHROME B PROTEIN CONFERRING RESISTANCE TO QO […]” (BASF SE, priority 2020, published 2023)

Experiments:
[1] = tested on: Phakopsora pachyrhizi (strain containing the amino acid substitution F129L in the mitochondrial cytochrome b protein); assay: Use example 1: protective control of soybean rust on soybeans (PHAKPA P2), inoculation 2 days after spraying; assay type: in vivo; conditions: % diseased leaf area on soybean, 16 ppm spray, inoculation 2 days after treatment, untreated controls usually >85 %
Experimental: (§1) The compound was dissolved in a mixture of acetone and/or dimethylsulfoxide and the wetting agent/emulsifier Wettol, which is based on ethoxylated alkylphenoles, in a ratio (volume) solvent-emulsifier of 99 to 1 to give a total volume of 5 ml. Subsequently, water was added to total volume of 100 ml. This stock solution was then diluted with the described solvent-emulsifier-water mixture to the final concentration given in the table below.
Use example 1. Protective control of soybean rust on soybeans caused by Phakopsora pachyrhizi (PHAKPA P2)
(§2) Leaves of potted soybean seedlings were sprayed to run-off with the previously described spray solution, containing the concentration of active ingredient or their mixture as described below. The plants were allowed to air-dry. The trial plants were cultivated for 2 days in a greenhouse chamber at 23-27° C. and a relative humidity between 60 and 80 %. Then the plants were inoculated with spores of Phakopsora pachyrhizi. The strain used contains the amino acid substitution F129L in the mitochondrial cytochrome b protein conferring resistance to Qo inhibitors. To ensure the success the artificial inoculation, the plants were transferred to a humid chamber with a relative humidity of about 95 % and 20 to 24° C. for 24 hr. The trial plants were cultivated for up to 14 days in a greenhouse chamber at 23 to 27° C. and a relative humidity between 60 and 80 %. The extent of fungal attack on the leaves was visually assessed as % diseased leaf area, the disease level of untreated controls was usually higher than 85 %.
(§3) All test results below are given for the control of phytopathogenic fungi containing the amino acid substitution F129L in the mitochondrial cytochrome b protein conferring resistance to Qo inhibitors.

[2] = tested on: Phakopsora pachyrhizi (strain containing the amino acid substitution F129L in the mitochondrial cytochrome b protein); assay: Use example 2: protective control of soybean rust on soybeans (PHAKPA P6), inoculation six days after spraying; assay type: in vivo; conditions: % diseased leaf area on soybean, 16 ppm spray, inoculation six days after treatment, untreated controls usually >85 %
Experimental: as §1
Use example 2. Protective control of soybean rust on soybeans caused by Phakopsora pachyrhizi (PHAKPA P6)
as §2, with “active ingredient as described” for “active ingredient or their mixture as described”, “cultivated for six days in” for “cultivated for 2 days in”, “% and 23 to 27°” for “% and 20 to 24°”, “23 to 27° C. for” for “20 to 24° C. for”
as §3

Row | Structure (SMILES) | PHAKPA Disease level (%) P2 at 16 ppm [1] [%] | PHAKPA Disease level (%) P6 at 16 ppm [2] [%]
1 | CO/N=C(/C(=O)OC)c1ccccc1CO/N=C(\C)C#Cc1ccccc1Br [Example 46] | 47 | 37
2 | CNC(=O)/C(=N/OC)c1cccc(C)c1CO/N=C(\C)C#Cc1ccccc1Br [Example 47] | 0 | 0
3 | CNC(=O)/C(=N/OC)c1ccccc1CO/N=C(\C)C#Cc1ccccc1Br [Example 48] | 0 | 2
4 | CNC(=O)/C(=N/OC)c1cccc(C)c1CO/N=C(\C)C#Cc1ccccc1C [Example 49] | 0 | 0
5 | CNC(=O)/C(=N/OC)c1ccccc1CO/N=C(\C)C#Cc1ccccc1C [Example 51] | 0 | 0
6 | CO/N=C(/C(=O)OC)c1ccccc1CO/N=C(\C)C#Cc1cccc(OC(F)(F)F)c1 [Example 52] | 13 | 33
7 | CNC(=O)/C(=N/OC)c1ccccc1CO/N=C(\C)C#Cc1cccc(OC(F)(F)F)c1 [Example 53] | 0 | 0
8 | CO/N=C(/C(=O)OC)c1ccccc1CO/N=C(\C)C#Cc1ccc(Br)cc1 [Example 54] | 22 | 25
9 | CNC(=O)/C(=N/OC)c1ccccc1CO/N=C(\C)C#Cc1ccc(Br)cc1 [Example 55] | 23 | 40
10 | CO/N=C(/C(=O)OC)c1cccc(C)c1CO/N=C(\C)C#Cc1ccc(Br)cc1 [Example 56] | 18 | 37
11 | CNC(=O)/C(=N/OC)c1cccc(C)c1CO/N=C(\C)C#Cc1cccc(C)c1 [Example 57] | 0 | 0
12 | CNC(=O)/C(=N/OC)c1ccccc1CO/N=C(\C)C#Cc1cccc(C)c1 [Example 58] | 2 | 4
13 | CNC(=O)/C(=N/OC)c1cccc(C)c1CO/N=C(\C)C#Cc1ccc(Br)cc1 [Example 59] | 13 | 28
14 | CO/N=C(/C(=O)OC)c1ccccc1CO/N=C(\C)C#Cc1ccccc1F [Example 60] | 40 | 17
15 | CO/N=C(/C(=O)OC)c1cccc(C)c1CO/N=C(\C)C#Cc1ccccc1F [Example 61] | 8 | 8
16 | CNC(=O)/C(=N/OC)c1ccccc1CO/N=C(\C)C#Cc1ccccc1F [Example 62] | 2 | 2
17 | CNC(=O)/C(=N/OC)c1cccc(C)c1CO/N=C(\C)C#Cc1ccccc1F [Example 63] | 0 | 0
18 | CO/N=C(/C(=O)OC)c1cccc(C)c1CO/N=C(\C)C#Cc1ccc(C(F)(F)F)cc1 [Example 64] | 43 | 60
19 | CO/N=C(/C(=O)OC)c1ccccc1CO/N=C(\C)C#Cc1ccc(C(F)(F)F)cc1 [Example 65] | 80 | 70
20 | CO/N=C(/C(=O)OC)c1cccc(C)c1CO/N=C(\C)C#Cc1ccccc1C(F)(F)F [Example 66] | 17 | 30
21 | CO/N=C(/C(=O)OC)c1ccccc1CO/N=C(\C)C#Cc1ccccc1C(F)(F)F [Example 67] | 50 | 60
22 | CNC(=O)/C(=N/OC)c1cccc(C)c1CO/N=C(\C)C#Cc1ccccc1C(F)(F)F [Example 68] | 0 | 1
23 | CNC(=O)/C(=N/OC)c1ccccc1CO/N=C(\C)C#Cc1ccccc1C(F)(F)F [Example 69] | 1 | 2

Row | Structure (SMILES) | PHAKPA Disease level (%) P2 at 16 ppm [1] [%] | PHAKPA Disease level (%) P6 at 16 ppm [2] [%]
24 | CO/C=C(/C(=O)OC)c1cccc(C)c1CO/N=C(\C)C#Cc1ccc(F)cc1 [Example 70] | 0 | 0
25 | CO/N=C(/C(=O)OC)c1ccccc1CO/N=C(\C)C#Cc1cccc(Cl)c1 [Example 71] | 20 | 17
26 | CO/N=C(/C(=O)OC)c1cccc(C)c1CO/N=C(\C)C#Cc1cccc(Cl)c1 [Example 72] | 7 | 8
27 | CNC(=O)/C(=N/OC)c1ccccc1CO/N=C(\C)C#Cc1cccc(Cl)c1 [Example 73] | 1 | 0
28 | CO/N=C(/C(=O)OC)c1ccccc1CO/N=C(\C)C#Cc1ccccc1Cl [Example 74] | 42 | 47
29 | CO/N=C(/C(=O)OC)c1cccc(C)c1CO/N=C(\C)C#Cc1ccccc1Cl [Example 75] | 22 | 40
30 | CNC(=O)/C(=N/OC)c1ccccc1CO/N=C(\C)C#Cc1ccccc1Cl [Example 76] | 3 | 4
31 | CNC(=O)/C(=N/OC)c1cccc(C)c1CO/N=C(\C)C#Cc1cccc(Cl)c1 [Example 77] | 0 | 0
32 | CNC(=O)/C(=N/OC)c1cccc(C)c1CO/N=C(\C)C#Cc1ccccc1Cl [Example 78] | 0 | 0
33 | CNC(=O)/C(=N/OC)c1ccccc1CO/N=C(\C)C#Cc1ccc(Cl)cc1F [Example 83] | 17 | 22
34 | CNC(=O)/C(=N/OC)c1ccccc1CO/N=C(\C)C#Cc1ccc2c(c1)OC(F)(F)O2 [Example 84] | 77 | 67
35 | CO/N=C(/C(=O)OC)c1ccccc1CO/N=C(\C)C#Cc1ccc2c(c1)OC(F)(F)O2 [Example 85] | 100 | 83
36 | CNC(=O)/C(=N/OC)c1ccccc1CO/N=C(\C)C#Cc1ccc(Cl)cc1C1CC1 [Example 86] | 5 | 18
37 | CNC(=O)/C(=N/OC)c1ccccc1CO/N=C(\C)C#Cc1ccc(OC(C)C)cc1 [Example 88] | 77 | 60
38 | CO/N=C(/C(=O)OC)c1ccccc1CO/N=C(\C)C#Cc1ccc(Cl)cc1F [Example 90] | 30 | 57
39 | CO/N=C(/C(=O)OC)c1ccccc1CO/N=C(\C)C#Cc1ccc(Cl)cc1C1CC1 [Example 91] | 53 | 43
40 | CNC(=O)/C(=N/OC)c1ccccc1CO/N=C(\C)C#Cc1ccc(C2CC2)cc1 [Example 92] | 60 | 57
41 | CO/N=C(/C(=O)OC)c1ccccc1CO/N=C(\C)C#Cc1c(Cl)cccc1Cl [Example 93] | 87 | 97
42 | CO/N=C(/C(=O)OC)c1ccccc1CO/N=C(\C)C#Cc1ccc(Cl)cc1C(F)(F)F [Example 94] | 53 | 47
43 | CO/N=C(/C(=O)OC)c1ccccc1CO/N=C(\C)C#Cc1ccc(OCC(F)(F)F)cc1 [Example 98] | 73 | 93
44 | CNC(=O)/C(=N/OC)c1ccccc1CO/N=C(\C)C#Cc1ccc(Cl)cc1C(F)(F)F [Example 99] | 0 | 0
45 | CO/N=C(/C(=O)OC)c1ccccc1CO/N=C(\C)C#Cc1ccc(Oc2ccc(F)cc2)cc1 [Example 100] | 77 | 77
46 | CNC(=O)/C(=N/OC)c1ccccc1CO/N=C(\C)C#Cc1cccc2c1OC(F)(F)O2 [Example 101] | 4 | 2
